Data: patent US20150238487A1, “NOVEL ERGOLINE DERIVATIVES AND USES THEREOF” (MAP Pharmaceuticals, Inc., priority 2012, published 2015)

Tests used:
Serotonin 5-HT2A = biological target: T1, Serotonin 5-HT2A (Homo sapiens, UniProt P28223); experiment: Aequorin assay, Serotonin 5-HT2A; assay type: cell-based; conditions: agonism; CHO-K1 mAeq Gα16, Aequorin
T1 construct: expressed in transfected cells; host or cells: CHO-K1 mAeq Gα16
Protocol: (§1) Receptor […] activity assays were performed using 8′OH-2-CF3-dihydroergotamine (8′OH-2-CF3-DHE). Table 1 summarizes the cell lines (CHO-K1/HEK293 transfected with relevant human receptor) and the assays performed to detect any agonist or antagonist activity.
(§2) Aequorin assays were conducted to monitor activity for 8′OH-2CF3-dihydroergotamine (8′OH-2CF3-DHE) against the receptors indicated in Table 1 above (except for mGlu3 and mGlu5). CHO-K1 cells coexpressing mitochondrial apoaequorin and the recombinant human receptor of interest were grown to mid-log phase in culture media without antibiotics and then detached with PBS-EDTA, centrifuged and resuspended in assay buffer (DMEM/HAM's F12 with HEPES, without phenol red+0.1% BSA, protease free) at a concentration of 1×10^6 cell/mL. […]
(§3) 50 μL of the cell suspension was mixed with 50 μL of test or reference agonist in a 96-well plate. The resulting emission of light was recorded using Hamamatsu Functional Drug Screening System 6000 (FDSS 6000) luminometer. […]
(§4) To standardize the emission of recorded light (and determine of the “100% signal”) across plates and across different experiments, some wells contained 100 μM digitonin or a saturating concentration of ATP (20 μM).

Dopamine D4 = biological target: T2, Dopamine D4 (Homo sapiens, UniProt P21917); experiment: GTPγ[35S] assay, Dopamine D4; assay type: biochemical; conditions: antagonism, CHO-K1 membranes
T2 construct: expressed in transfected cells; host or cells: CHO-K1 (membrane extracts)
T2 sequence (P21917 whole entry): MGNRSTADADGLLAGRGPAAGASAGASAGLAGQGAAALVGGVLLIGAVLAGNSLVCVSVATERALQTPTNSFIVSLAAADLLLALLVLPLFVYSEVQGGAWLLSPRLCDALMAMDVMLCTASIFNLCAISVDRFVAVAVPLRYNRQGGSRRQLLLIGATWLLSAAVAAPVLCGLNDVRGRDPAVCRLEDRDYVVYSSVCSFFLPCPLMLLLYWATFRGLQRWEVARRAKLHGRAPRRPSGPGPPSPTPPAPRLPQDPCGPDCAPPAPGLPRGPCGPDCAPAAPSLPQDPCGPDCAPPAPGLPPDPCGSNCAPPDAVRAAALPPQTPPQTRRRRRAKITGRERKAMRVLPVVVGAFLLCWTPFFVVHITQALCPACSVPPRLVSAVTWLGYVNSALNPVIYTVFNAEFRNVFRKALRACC
Protocol: as §1
(§5) GTPγS studies were conducted to monitor agonist activity for 8′OH-2CF3-dihydroergotamine (8′OH-2CF3-DHE) against the receptors indicated in Table 1 above. Reagents used were the following: Assay buffer (20 mM HEPES, pH 7.4; 100 mM NaCl; 10 μg/mL saponin; 30 mM MgCl2); Membranes (recombinant human receptor membrane extracts were thawed on ice and diluted in assay buffer to give 1000 μg/mL ([…]) and kept on ice); GDP (diluted in assay buffer to give 30 μM solution (3 μM final concentration); beads (PVT-WGA (Amersham, RPNQ001), diluted in assay buffer at 25 mg/mL (0.25 mg/10 μL)); GTPγ^35S (Perkin Elmer, NEG030X), diluted in assay buffer to give 0.1 nM (final concentration); and ligand (agonist/antagonist diluted in assay buffer).
(§6) Membranes were mixed with GDP (1:1) and incubated for at least 15 minutes on ice. In parallel GTPγ^35S was mixed with the beads (1:1) just before starting the reaction. […] The plates were then centrifuged for 10 minutes at 2000 rpm and incubated at room temperature for 1 hour and counted for 1 min/well with a Perkin Elmer TopCount reader.

[1] = test system: Purinergic (P2X1/P2X2/P2X3/P2X4/P2X7); experiment: Purinergic receptor QPatch patch clamp study; assay type: cell-based, human; conditions: HEK293, QPatch HT, agonist and antagonist modes at 10 and 30 μM
Protocol: Purinergic receptor studies were conducted to monitor activity for 8′OH-2CF3-dihydroergotamine (8′OH-2CF3-DHE) against the P2X1, P2X2, P2X3, P2X4 and P2X7 receptors. Human recombinant purinergic receptor expressing HEK293 cells were used and receptor activity was evaluated at room temperature using QPatch HT® (Sophion Bioscience A/S, Denmark) automatic parallel patch clamp system. 8′OH-2CF3-DHE was evaluated in both agonist and antagonist modes at 10 and 30 μM. Each concentration was tested in triplicates.

NK1 = biological target: T3, NK1 (Homo sapiens, UniProt P25103); experiment: Aequorin assay, Neurokinin NK1; assay type: cell-based; conditions: antagonism, CHO-AEQ
T3 construct: expressed in transfected cells; host or cells: CHO-AEQ (CHO-K1 coexpressing mitochondrial apoaequorin)
T3 sequence (P25103 whole entry): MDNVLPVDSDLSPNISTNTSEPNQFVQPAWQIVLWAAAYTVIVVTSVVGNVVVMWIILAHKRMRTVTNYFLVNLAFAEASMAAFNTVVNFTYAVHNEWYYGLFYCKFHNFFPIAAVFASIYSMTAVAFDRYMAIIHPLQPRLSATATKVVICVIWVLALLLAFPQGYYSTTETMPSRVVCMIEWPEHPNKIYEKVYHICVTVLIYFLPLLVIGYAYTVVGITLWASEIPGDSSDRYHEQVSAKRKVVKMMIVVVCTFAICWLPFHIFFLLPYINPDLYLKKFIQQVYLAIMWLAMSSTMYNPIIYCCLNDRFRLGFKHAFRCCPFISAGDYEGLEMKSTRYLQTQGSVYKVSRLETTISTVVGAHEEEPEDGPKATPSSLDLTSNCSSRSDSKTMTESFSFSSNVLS
Protocol: as §1, §2, §3, §4

Adrenergic α2C = biological target: T4, Adrenergic α2C (Homo sapiens, UniProt P18825); experiment: GTPγ[35S] assay, Adrenergic α2C; assay type: biochemical; conditions: antagonism, CHO-K1 membranes, read-out: Activity (Antagonism: IC50), Adrenergic a2C
T4 construct: expressed in transfected cells; host or cells: CHO-K1 (membrane extracts)
T4 sequence (P18825 whole entry): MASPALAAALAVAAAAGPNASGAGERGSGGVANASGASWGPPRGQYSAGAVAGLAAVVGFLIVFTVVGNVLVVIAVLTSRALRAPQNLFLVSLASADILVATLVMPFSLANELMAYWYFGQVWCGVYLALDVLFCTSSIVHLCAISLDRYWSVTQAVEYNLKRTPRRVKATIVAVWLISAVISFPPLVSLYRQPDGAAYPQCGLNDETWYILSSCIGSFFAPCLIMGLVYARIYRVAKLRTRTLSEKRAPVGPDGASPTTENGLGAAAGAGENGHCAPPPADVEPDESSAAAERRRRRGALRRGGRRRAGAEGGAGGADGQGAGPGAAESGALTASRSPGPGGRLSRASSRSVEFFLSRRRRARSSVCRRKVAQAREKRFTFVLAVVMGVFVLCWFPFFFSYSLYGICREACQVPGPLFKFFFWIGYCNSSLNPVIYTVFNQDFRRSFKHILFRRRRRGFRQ
Protocol: as §1, §5, §6

[2] = test system: Somatostatin (SST1 ~ SSTS); experiment: GTPγ[35S] assay, Somatostatin receptors; assay type: biochemical, human; conditions: CHO-K1 membranes
Protocol: as §1, §5, §6

T1 sequence (P28223 whole entry): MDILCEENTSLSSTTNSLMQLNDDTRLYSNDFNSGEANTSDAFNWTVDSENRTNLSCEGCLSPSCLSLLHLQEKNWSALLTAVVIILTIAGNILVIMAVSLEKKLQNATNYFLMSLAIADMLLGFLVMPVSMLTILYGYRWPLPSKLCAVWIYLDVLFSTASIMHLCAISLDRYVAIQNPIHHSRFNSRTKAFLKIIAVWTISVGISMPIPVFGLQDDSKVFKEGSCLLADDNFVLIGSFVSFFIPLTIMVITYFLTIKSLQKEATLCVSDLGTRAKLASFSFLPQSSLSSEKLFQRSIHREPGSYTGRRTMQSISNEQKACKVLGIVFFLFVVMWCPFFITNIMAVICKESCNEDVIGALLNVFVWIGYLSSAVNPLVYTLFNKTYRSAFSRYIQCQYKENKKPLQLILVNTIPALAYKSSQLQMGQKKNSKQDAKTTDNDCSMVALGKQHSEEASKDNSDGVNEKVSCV

Q: Which results are given for `CN1C[C@H](C(=O)N[C@]2(C)O[C@@]3(O)[C@@H]4CC[C@@H](O)N4C(=O)[C@H](Cc4ccccc4)N3C2=O)C[C@@H]2c3cccc4[nH]c(C(F)(F)F)c(c34)C[C@H]21` [8′OH-2-CF3-DHE, 8′-Hydroxy-2-CF3-dihydroergotamine]?
A: EC50 (Serotonin 5-HT2A): 607 nM; IC50 (Dopamine D4): > 10000 nM; Activity (Agonism: EC50; Antagonism: IC50), Purinergic (P2X1/P2X2/P2X3/P2X4/P2X7) [1]: Inactive; IC50 (NK1): > 1000 nM; IC50 (Adrenergic α2C): > 10000 nM; Activity (Agonism: EC50; Antagonism: IC50), Somatostatin (SST1 ~ SSTS) [2]: Inactive
